Columns and labels:
Experiment in all cases: relative viability (nuclei count vs DMSO), 5 days (fraction); higher = more cells survive
[1] = compound: CN(C)CC1=CC(=CC=C1)N=C(C2=CC=CC=C2)C3=C(NC4=C3C=CC(=C4)C(=O)N(C)C)O + CC(=O)c1c(C)c2cnc(Nc3ccc(N4CCNCC4)cn3)nc2n(C2CCCC2)c1=O [Palbociclib] (partner 0.5 µM)
Summary of the method: (§1)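 Five library-drug doses in √10 steps were combined with a fixed anchor-drug dose, or a single drug was given alone, by pin tool to lung cancer cell lines in 1536-well plates the day after seeding. Nuclei were stained and counted after 5 days. Relative viability is the nuclei count in treated wells over that in vehicle wells, taken as the median of duplicate plates.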

[2] = compound: CN(C)CC1=CC(=CC=C1)N=C(C2=CC=CC=C2)C3=C(NC4=C3C=CC(=C4)C(=O)N(C)C)O + C[C@@H](Oc1cc(-c2cnn(C3CCNCC3)c2)cnc1N)c1c(Cl)ccc(F)c1Cl [Crizotinib] (partner 1 µM)
Summary of the method: as §1

[3] = compound: CN(C)CC1=CC(=CC=C1)N=C(C2=CC=CC=C2)C3=C(NC4=C3C=CC(=C4)C(=O)N(C)C)O + NC(=O)Nc1cc(-c2cccc(F)c2)sc1C(=O)N[C@H]1CCCNC1 [AZD7762] (partner 0.2 µM)
Summary of the method: as §1

[4] = compound: CN(C)CC1=CC(=CC=C1)N=C(C2=CC=CC=C2)C3=C(NC4=C3C=CC(=C4)C(=O)N(C)C)O + O=C(CCCCCCC(=O)Nc1ccccc1)NO [Vorinostat] (partner 1 µM)
Summary of the method: as §1

Cell Line | relative viability ([1]; first compound 0.08 µM) | relative viability ([1]; first compound 0.253 µM) | relative viability ([1]; first compound 0.8 µM) | relative viability ([1]; first compound 2.53 µM) | relative viability ([1]; first compound 8 µM) | relative viability ([2]; first compound 0.08 µM) | relative viability ([2]; first compound 0.253 µM) | relative viability ([2]; first compound 0.8 µM) | relative viability ([2]; first compound 2.53 µM) | relative viability ([2]; first compound 8 µM) | relative viability ([3]; first compound 0.08 µM) | relative viability ([3]; first compound 0.253 µM) | relative viability ([3]; first compound 0.8 µM) | relative viability ([3]; first compound 2.53 µM) | relative viability ([3]; first compound 8 µM) | relative viability ([4]; first compound 0.08 µM) | relative viability ([4]; first compound 0.253 µM) | relative viability ([4]; first compound 0.8 µM) | relative viability ([4]; first compound 2.53 µM) | relative viability ([4]; first compound 8 µM)
HOP-62 | 0.372 | 0.445 | 0.441 | 0.43 | 0.4 | 0.927 | 0.907 | 1.09 | 1.06 | 0.882 | 0.505 | 0.566 | 0.496 | 0.693 | 0.673 | 0.624 | 0.659 | 0.643 | 0.7 | 0.46
LC-2-ad | 0.404 | 0.512 | 0.475 | 0.456 | 0.486 | 0.406 | 0.402 | 0.486 | 0.4 | 0.441 | 0.842 | 0.819 | 0.812 | 0.829 | 0.867 | 0.694 | 0.699 | 0.727 | 0.681 | 0.622
LCLC-97TM1 | 0.199 | 0.224 | 0.258 | 0.254 | 0.299 | 0.37 | 0.517 | 0.453 | 0.331 | 0.445 | 0.312 | 0.328 | 0.241 | 0.281 | 0.281 | 0.683 | 0.728 | 0.728 | 0.623 | 0.551
LCLC-103H | 0.255 | 0.425 | 0.558 | 0.449 | 0.458 | 1.14 | 1.06 | 0.914 | 1.02 | 0.979 | 0.686 | 0.838 | 0.794 | 0.666 | 0.645 | 0.815 | 0.801 | 0.782 | 0.793 | 0.57
LK-2 | 0.52 | 0.814 | 0.605 | 0.561 | 0.541 | 0.249 | 0.21 | 0.264 | 0.256 | 0.216 | 0.457 | 0.416 | 0.426 | 0.493 | 0.341 | 0.352 | 0.28 | 0.272 | 0.331 | 0.262
LOU-NH91 | 0.57 | 0.53 | 0.524 | 0.52 | 0.598 | 0.777 | 0.723 | 0.689 | 0.746 | 0.712 | 0.762 | 0.801 | 0.713 | 0.719 | 0.703 | 0.892 | 0.97 | 0.754 | 0.87 | 0.872
LU99A | 0.392 | 0.417 | 0.457 | 0.401 | 0.351 | 0.565 | 0.551 | 0.61 | 0.513 | 0.411 | 0.45 | 0.335 | 0.337 | 0.24 | 0.299 | 0.517 | 0.515 | 0.495 | 0.416 | 0.469
LXF-289 | 0.603 | 0.544 | 0.606 | 0.547 | 0.568 | 0.871 | 0.762 | 0.758 | 0.773 | 0.757 | 1.12 | 1.05 | 1.11 | 0.894 | 1.08 | 0.778 | 0.745 | 0.756 | 0.72 | 0.727
NCI-H23 |  | 0.655 | 0.556 | 0.579 | 0.478 | 0.376 | 0.538 | 0.503 | 0.483 | 0.417 |  | 0.243 | 0.255 | 0.324 | 0.319 |  | 0.655 | 0.688 | 0.649 | 0.549
NCI-H322M | 0.448 | 0.48 | 0.45 | 0.442 | 0.432 | 0.931 | 0.899 | 0.928 | 0.887 | 0.853 | 0.53 | 0.599 | 0.53 | 0.448 | 0.588 | 0.8 | 0.957 | 0.874 | 0.743 | 0.67
NCI-H358 | 0.122 | 0.139 | 0.141 | 0.149 | 0.17 | 0.506 | 0.501 | 0.513 | 0.484 | 0.443 | 0.635 | 0.463 | 0.419 | 0.471 | 0.485 | 0.73 | 0.629 | 0.585 | 0.582 | 0.482
NCI-H441 | 0.217 | 0.231 | 0.2 | 0.198 | 0.247 | 0.463 | 0.748 | 1.04 | 0.627 | 0.629 | 1.19 | 1.06 | 1 | 1.2 | 1.06 | 0.852 | 0.86 | 1.01 | 0.613 | 0.805
NCI-H460 | 0.224 | 0.221 | 0.211 | 0.132 | 0.237 | 0.824 | 0.811 | 0.998 | 0.819 | 0.733 | 0.667 | 0.511 | 0.636 |  | 0.664 | 0.722 | 0.702 | 0.716 | 0.704 | 0.728

Source: the supplement of paper PMC10307832
